From patent EP4467141A1, “PYRAZOLO-QUINOLINES AS SELECTIVE INHIBITORS OF GENOTOXIC STRESS-INDUCED IKK/NF- KB PATHWAYS FOR CANCER THERAPY” (Max-Delbrück-Centrum für Molekulare Medizin in der …, priority 2023, dated 2024)
pIC50: −log10 of the molar value. Where two headings read alike, the source gives them in different places.

Columns and labels:
Assay in all cases: Kinase panel study
Format in all cases: biochemical
[1] = target: T1, PIK3CD/PIK3R1 (p11 0 delta/p85 alpha) (Homo sapiens, UniProt O00329); conditions: for inhibition at 1 µM: 1000nM
T1 construct: purchased Thermo Fisher Scientific
Protocol: (§1) The Kinase panel study was entirely provided by Thermo Fisher Scientific using the two lead compounds MW01 and MW05 as well as their derivatives (MW01-E06, MW01-E10, MW01-E14, MW01-E18, MW05-E2, MW05-E3, MW05-E9 and MW05-E10. The experiment was performed using the ZLyte or Adapta protocol according to manufacturer standard operating procedures.
(§2) Based on their similar effects in our screen and molecular analysis, MW01 and MW05 were used in comparative target deconvolution studies seeking common targets despite their distinct structures. To eliminate previously identified kinases regulating NF-κB activity, such as IKK, as possible targets of MW01 and MW05, an in vitro kinase inhibition assay was performed. […] We next investigated if any of the shared kinase targets of MW01 and MW05 play a role in genotoxic stress-induced NF-κB activity and established several criteria to narrow down pathway-relevant targets. Considering the similar NF-κB inhibition phenotypes of both compounds, we hypothesized first that the target should be shared by both lead compounds. Second, based on the CaCo2 recovery values and experimental treatment concentration of 10 µM), the putative target kinase should have a low IC50 of, at most, 2000 nM for both lead compounds in the in vitro kinase panel (Fig. 2A). Based on these criteria alone, we arrived at a relatively short list of potential targets for further analysis, leaving only PIK3CG, PIK3C2G, and CLK2 (Fig. 2B). IC50 values for PIK3C2G by both lead compounds agreed best with these criteria, but RNA expression analysis indicates high tissue specificity as well as lack of expression of this kinase in our U2-OS model cell line, which we then eliminated from further analysis (Uhlén et al., 2015). […] Table 6: Percentage of inhibition of the indicated kinases by MW01 or MW05 at either 10 µM or 1 µM. n.d. = not determined.

BTK = target: T2, BTK (Homo sapiens, UniProt Q06187); conditions: for inhibition at 1 µM: 1000nM
T2 construct: purchased Thermo Fisher Scientific
Protocol: as §1, §2

[2] = target: T3, PIK3CA/PIK3R1 (p11 0 alpha/p85 alpha) (Homo sapiens, UniProt P42336); conditions: for inhibition at 1 µM: 1000nM
T3 construct: purchased Thermo Fisher Scientific
Protocol: as §1, §2

DYRK1A = target: T4, DYRK1A (Homo sapiens, UniProt Q13627); conditions: for inhibition at 1 µM: 1000nM
T4 construct: purchased Thermo Fisher Scientific
Protocol: as §1, §2

PIK3C2G (PI3K-C2 gamma) = target: T5, PIK3C2G (PI3K-C2 gamma) (Homo sapiens, UniProt O75747); conditions: for inhibition at 1 µM: 1000nM; for pIC50: in vitro kinase panel, criterion of at most 2000 nM
T5 construct: purchased Thermo Fisher Scientific
T5 sequence (O75747 1-1486): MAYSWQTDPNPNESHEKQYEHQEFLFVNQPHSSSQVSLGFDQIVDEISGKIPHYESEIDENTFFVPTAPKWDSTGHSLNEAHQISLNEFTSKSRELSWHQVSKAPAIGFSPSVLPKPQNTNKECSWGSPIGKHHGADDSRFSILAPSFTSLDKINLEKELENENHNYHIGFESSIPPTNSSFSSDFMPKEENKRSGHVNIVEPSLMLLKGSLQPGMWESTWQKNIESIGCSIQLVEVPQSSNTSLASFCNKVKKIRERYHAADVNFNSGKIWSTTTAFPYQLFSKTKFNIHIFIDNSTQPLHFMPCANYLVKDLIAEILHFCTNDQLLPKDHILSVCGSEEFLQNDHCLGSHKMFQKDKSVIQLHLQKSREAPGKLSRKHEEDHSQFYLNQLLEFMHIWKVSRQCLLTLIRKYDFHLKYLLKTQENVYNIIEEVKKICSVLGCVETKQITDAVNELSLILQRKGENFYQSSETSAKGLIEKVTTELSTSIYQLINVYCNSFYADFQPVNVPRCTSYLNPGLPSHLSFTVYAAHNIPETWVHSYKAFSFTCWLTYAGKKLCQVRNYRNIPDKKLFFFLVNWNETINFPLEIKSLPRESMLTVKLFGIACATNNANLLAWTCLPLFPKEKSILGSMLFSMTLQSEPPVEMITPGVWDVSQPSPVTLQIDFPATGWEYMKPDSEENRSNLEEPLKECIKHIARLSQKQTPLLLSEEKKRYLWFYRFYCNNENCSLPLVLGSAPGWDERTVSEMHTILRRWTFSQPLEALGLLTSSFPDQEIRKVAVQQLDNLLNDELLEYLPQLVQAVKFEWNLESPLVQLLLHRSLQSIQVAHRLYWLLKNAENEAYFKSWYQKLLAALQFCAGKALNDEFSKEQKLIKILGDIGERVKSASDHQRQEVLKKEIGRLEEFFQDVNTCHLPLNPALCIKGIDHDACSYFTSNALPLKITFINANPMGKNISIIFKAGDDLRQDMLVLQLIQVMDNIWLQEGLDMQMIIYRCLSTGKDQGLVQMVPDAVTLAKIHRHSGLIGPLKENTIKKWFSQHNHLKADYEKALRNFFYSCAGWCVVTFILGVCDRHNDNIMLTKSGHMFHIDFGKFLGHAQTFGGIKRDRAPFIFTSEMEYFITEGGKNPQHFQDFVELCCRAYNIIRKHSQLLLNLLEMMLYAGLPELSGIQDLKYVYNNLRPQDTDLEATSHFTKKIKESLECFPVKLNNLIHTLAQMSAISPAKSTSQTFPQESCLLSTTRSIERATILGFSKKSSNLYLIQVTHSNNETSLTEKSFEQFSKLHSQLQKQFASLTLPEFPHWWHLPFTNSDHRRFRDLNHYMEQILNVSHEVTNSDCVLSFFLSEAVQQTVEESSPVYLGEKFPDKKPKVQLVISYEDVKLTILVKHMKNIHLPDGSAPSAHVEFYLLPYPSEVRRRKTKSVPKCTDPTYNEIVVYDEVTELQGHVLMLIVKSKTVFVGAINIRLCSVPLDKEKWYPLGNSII
Protocol: as §1, §2

[3] = read-out: Percentage of inhibition
[4] = 10000nM, read-out: Percentage of inhibition
[5] = PIK3CD/PIK3R1, compound at 10µM, read-out: % of Inhibition
[6] = BTK, compound at 10µM, read-out: % of Inhibition
[7] = PIK3CA/PIK3R1, compound at 10µM, read-out: % of Inhibition
[8] = DYRK1A, compound at 10µM, read-out: % of Inhibition
[9] = PIK3C2G (PI3K-C2 gamma), compound at 10µM, read-out: % of Inhibition

T1 sequence (O00329 whole entry): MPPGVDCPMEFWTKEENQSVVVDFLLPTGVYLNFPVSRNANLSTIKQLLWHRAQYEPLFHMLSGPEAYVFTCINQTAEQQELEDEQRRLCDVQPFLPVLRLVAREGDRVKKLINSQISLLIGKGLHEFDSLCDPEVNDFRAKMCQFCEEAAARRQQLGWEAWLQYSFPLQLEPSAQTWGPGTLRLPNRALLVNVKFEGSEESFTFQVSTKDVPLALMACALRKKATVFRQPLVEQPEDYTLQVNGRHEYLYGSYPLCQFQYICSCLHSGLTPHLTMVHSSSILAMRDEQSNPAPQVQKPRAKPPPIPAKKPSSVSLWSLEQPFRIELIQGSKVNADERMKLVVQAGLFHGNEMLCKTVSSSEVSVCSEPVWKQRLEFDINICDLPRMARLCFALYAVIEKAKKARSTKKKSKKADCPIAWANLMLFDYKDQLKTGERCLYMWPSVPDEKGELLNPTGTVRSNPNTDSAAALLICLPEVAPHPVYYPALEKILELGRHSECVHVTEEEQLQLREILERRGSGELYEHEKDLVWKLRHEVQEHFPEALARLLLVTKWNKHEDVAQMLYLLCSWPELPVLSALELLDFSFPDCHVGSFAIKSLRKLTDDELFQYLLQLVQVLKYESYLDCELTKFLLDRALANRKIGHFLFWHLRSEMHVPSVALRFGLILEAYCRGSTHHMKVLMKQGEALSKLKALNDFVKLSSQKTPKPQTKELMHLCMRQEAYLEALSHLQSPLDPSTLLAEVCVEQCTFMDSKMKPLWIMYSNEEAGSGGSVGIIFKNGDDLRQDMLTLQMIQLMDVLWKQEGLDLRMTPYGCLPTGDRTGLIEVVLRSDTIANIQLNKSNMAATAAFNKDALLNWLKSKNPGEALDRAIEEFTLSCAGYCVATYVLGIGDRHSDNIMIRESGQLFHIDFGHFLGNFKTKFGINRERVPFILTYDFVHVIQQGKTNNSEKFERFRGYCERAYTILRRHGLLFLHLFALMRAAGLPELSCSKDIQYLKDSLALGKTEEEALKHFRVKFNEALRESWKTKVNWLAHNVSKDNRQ
T1 sequence (P27986 whole entry partner): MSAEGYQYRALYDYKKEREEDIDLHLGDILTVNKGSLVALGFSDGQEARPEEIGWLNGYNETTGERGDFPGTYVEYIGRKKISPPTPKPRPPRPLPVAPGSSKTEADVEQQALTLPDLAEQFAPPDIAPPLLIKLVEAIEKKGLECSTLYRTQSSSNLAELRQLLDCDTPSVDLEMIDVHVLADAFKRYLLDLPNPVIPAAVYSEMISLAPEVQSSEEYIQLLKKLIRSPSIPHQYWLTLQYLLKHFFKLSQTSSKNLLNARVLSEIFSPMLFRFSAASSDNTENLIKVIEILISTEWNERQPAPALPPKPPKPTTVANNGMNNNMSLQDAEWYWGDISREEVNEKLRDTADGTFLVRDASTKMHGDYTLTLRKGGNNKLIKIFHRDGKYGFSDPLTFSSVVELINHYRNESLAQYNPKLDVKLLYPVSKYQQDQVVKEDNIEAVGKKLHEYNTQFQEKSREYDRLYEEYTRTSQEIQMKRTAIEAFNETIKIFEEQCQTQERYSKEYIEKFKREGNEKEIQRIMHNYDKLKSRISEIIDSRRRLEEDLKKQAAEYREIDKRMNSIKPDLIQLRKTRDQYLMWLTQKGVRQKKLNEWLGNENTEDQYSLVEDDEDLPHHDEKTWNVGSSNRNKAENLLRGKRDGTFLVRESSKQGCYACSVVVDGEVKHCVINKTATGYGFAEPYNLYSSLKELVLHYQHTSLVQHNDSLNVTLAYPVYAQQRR
T3 sequence (P42336 whole entry): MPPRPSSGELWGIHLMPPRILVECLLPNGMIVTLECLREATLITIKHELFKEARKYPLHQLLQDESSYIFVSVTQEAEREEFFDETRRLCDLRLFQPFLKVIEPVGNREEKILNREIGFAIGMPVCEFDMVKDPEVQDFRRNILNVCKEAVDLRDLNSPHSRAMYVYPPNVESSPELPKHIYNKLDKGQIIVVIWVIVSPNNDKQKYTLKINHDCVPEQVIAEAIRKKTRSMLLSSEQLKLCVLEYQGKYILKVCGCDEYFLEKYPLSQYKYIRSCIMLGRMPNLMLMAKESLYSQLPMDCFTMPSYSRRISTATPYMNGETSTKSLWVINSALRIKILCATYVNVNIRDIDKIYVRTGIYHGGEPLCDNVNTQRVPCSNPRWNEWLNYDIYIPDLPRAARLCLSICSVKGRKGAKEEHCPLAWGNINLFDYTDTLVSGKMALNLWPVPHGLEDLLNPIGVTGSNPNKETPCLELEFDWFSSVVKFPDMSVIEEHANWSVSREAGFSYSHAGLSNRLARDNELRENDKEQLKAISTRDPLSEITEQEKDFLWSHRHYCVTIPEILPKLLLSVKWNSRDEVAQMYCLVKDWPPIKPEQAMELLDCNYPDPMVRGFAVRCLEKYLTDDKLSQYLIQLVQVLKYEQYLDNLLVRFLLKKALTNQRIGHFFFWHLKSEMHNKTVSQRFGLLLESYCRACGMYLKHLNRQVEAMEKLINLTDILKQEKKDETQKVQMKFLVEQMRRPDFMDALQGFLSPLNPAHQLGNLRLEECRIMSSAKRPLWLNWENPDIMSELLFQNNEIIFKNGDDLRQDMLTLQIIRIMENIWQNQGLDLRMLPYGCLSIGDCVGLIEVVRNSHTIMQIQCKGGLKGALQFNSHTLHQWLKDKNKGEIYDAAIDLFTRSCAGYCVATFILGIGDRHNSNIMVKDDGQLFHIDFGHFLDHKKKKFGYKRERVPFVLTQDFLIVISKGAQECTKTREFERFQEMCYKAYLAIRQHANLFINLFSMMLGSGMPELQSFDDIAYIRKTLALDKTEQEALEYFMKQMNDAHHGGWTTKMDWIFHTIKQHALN
T3 sequence (P27986 whole entry partner): as the sequence (P27986 whole entry partner) above
T2 sequence (Q06187 whole entry): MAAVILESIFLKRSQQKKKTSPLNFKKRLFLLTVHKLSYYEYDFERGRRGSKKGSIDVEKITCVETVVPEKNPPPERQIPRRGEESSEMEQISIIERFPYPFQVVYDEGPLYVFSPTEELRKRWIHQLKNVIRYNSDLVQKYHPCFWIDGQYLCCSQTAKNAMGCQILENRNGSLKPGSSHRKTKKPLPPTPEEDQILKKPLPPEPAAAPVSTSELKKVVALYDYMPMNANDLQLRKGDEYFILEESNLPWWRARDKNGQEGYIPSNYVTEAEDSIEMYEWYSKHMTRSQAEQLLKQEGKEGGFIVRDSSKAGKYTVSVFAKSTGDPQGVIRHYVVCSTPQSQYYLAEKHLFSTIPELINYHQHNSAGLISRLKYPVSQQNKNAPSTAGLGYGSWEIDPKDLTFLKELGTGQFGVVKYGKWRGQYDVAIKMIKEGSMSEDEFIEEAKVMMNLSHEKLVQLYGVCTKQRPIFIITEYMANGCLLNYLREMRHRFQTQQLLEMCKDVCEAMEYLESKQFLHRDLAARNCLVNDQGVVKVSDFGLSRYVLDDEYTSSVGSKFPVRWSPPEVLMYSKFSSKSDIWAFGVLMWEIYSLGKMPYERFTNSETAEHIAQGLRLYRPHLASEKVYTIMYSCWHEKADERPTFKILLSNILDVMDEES

Compound | inhibition at 1 µM [1, 3] [%] | inhibition at 10 µM [1, 4] [%] | inhibition at 1 µM (BTK; [3]) [%] | inhibition at 10 µM (BTK; [4]) [%] | inhibition at 1 µM [2, 3] [%] | inhibition at 10 µM [2, 4] [%] | inhibition at 1 µM (DYRK1A; [3]) [%] | inhibition at 10 µM (DYRK1A; [4]) [%] | inhibition at 1 µM (PIK3C2G (PI3K-C2 gamma); [3]) [%] | inhibition at 10 µM (PIK3C2G (PI3K-C2 gamma); [4]) [%] | pIC50 (PIK3C2G (PI3K-C2 gamma)) | inhibition at 10 µM [1, 5] [%] | inhibition at 10 µM (BTK; [6]) [%] | inhibition at 10 µM [2, 7] [%] | inhibition at 10 µM (DYRK1A; [8]) [%] | inhibition at 10 µM (PIK3C2G (PI3K-C2 gamma); [9]) [%]
COc1ccc2c(c1OC)c(=O)n1c3ccc(O)cc3c3ccnc2c31 [MW01, 5-Hydroxy-10,11-dimethoxy-9H-benzo[c]indolo[3,2,1-ij][1,5]naphthyridin-9-one] | 79 | 89 | 11 | 23 | 81 | 86 | 80 | 90 | 92 | 94 | ≥ 5.70 | – | – | – | – | –
COc1ccc2c(c1)c1ccnc3c4nc(OC)ccc4c(=O)n2c13 [MW01-E6, 5,15-dimethoxy-1,11,14-triazapentacyclo[10.7.1,0^2,7.0^8,^20.0^13,^18]icosa-2(7),3,5,8(20),9,11,13(18),14,16-nonaen-19-one] | – | – | – | – | – | – | – | – | – | – | – | 34 | 30 | 38 | 14 | 35
O=c1c2cc(O)ccc2c2nccc3c4cc(O)ccc4n1c32 [MW01-E10, 5,16-dihydroxy-1,11-diazapentacyclo[10.7.1.0^2,^7.0^8,^20.0^13,^18]icosa-2(7),3,5,8(20),9,11,13(18),14,16-nonaen-19-one] | – | – | – | – | – | – | – | – | – | – | – | 87 | 69 | 90 | 56 | 81
COc1ccc2c(c1)c1ccnc3c4ccnc(OC)c4c(=O)n2c13 [MW01-E14, 5,17-dimethoxy-1,11,16-triazapentacyclo[10.7.1.0^2,^7.0^8,^20.0^13,^18]icosa-2(7),3,5,8(20),9,11,13(18),14,16-nonaen-19-one] | – | – | – | – | – | – | – | – | – | – | – | 84 | 29 | 80 | 12 | 50
O=c1c2cnccc2c2nccc3c4cc(O)ccc4n1c32 [MW01-E18, 5-hydroxy-1,11,16-triazapentacyclo[10.7.1.0^2,^7.0^8,^20.0^13,^18]icosa-2(7),3,5,8(20),9,11,13(18),14,16-nonaen-19-one] | – | – | – | – | – | – | – | – | – | – | – | 77 | 30 | 90 | 65 | 81
COc1ccc2cc3c(N)nn(C(=O)c4cccc(N(C)C)c4)c3nc2c1 [MW05, (3-Amino-7-methoxypyrazolo[3,4-b]quinolin-1-yl)-[3-(dimethylamino)phenyl]methanone] | 40 | 77 | 5 | 8 | 14 | 52 | 22 | 60 | 56 | 87 | ≥ 5.70 | – | – | – | – | –
COc1ccc2nc3c(cc2c1)c(N)nn3C(=O)c1cccc(N(C)C)c1 [MW05-E2, 1-[3-(dimethylamino)benzoyl]-6-methoxy-1H-pyrazolo[3,4-b]quinolin-3-amine] | – | – | – | – | – | – | – | – | – | – | – | 28 | 7 | 26 | 53 | 27
